According to patent US9101136B2, “Synergistic herbicide/fungicide composition containing certain pyridine carboxylic acids and certain fungicides” (Dow AgroSciences LLC, priority 2010, dated 2015):

Key:
Format in all cases: in vivo
[1] = system: scented mayweed (Matricaria chamomila L; MATCH); experiment: Postemergence herbicidal activity of mixtures on scented mayweed; parameters: pest or weed control: dose or concentration left out as unconfirmed; settings: for MATCH Ob (observed control): alone
Method: (§1) Seeds of the desired test plant species were planted in Sun Gro MetroMix 306 planting mixture, which typically has a pH of 6.0 to 6.8 and an organic matter content of about 30 percent, in plastic pots with a surface area of 103.2 square centimeters (cm^2). When required to ensure good germination and healthy plants, a fungicide treatment and/or other chemical or physical treatment was applied. The plants were grown for 7-36 days (d) in a greenhouse with an approximate 14-hour (h) photoperiod which was maintained at about 18° C. during the day and 17° C. during the night. Nutrients and water were added on a regular basis and supplemental lighting was provided with overhead metal halide 1000-Watt lamps as necessary. The plants were employed for testing when they reached the second or third true leaf stage.
(§2) Treatments consisted of a cereal fungicide compound (as listed in Tables 1 through 34) and the cereal herbicide, 4-amino-3-chloro-6-(4-chloro-2-fluoro-3-methoxyphenyl)pyridine-2-carboxylic acid, alone and in combination. Weighed amounts of acid, esters (methyl) or salts (triethylammonium, TEA) of 4-amino-3-chloro-6-(4-chloro-2-fluoro-3-methoxyphenyl)pyridine-2-carboxylic acid (Compound I) were placed in 25 milliliter (mL) glass vials and dissolved in a volume of 97:3 volume-to-volume (v/v) acetone/dimethyl sulfoxide (DMSO) to obtain 4.5 milligrams active ingredient per milliliter (mg ai/mL) concentrated solutions. […] The concentrated solutions of Compound I were diluted to 1.5 mg ai/mL with the addition of 2 volumes of an aqueous mixture containing acetone, water, isopropyl alcohol, DMSO, Agri-dex crop oil concentrate, and Triton® X-77 surfactant in a 64.7:26.0:6.7:2.0:0.7:0.01 v/v ratio. A dilution solution was prepared by mixing 1 volume of 97:3 v/v acetone/DMSO and 2 volumes of an aqueous mixture containing acetone, water, isopropyl alcohol, DMSO, Agri-dex crop oil concentrate, and Triton® X-77 surfactant in a 64.7:26.0:6.7:2.0:0.7:0.01 v/v ratio. Compound requirements are based upon a 12 mL application volume at a rate of 187 liters per hectare (L/ha). The concentrated solutions of the cereal fungicides were prepared following the same procedure. Weighed amounts of fungicide were placed in 25 mL glass vials and dissolved in a volume of 97:3 v/v acetone/DMSO to obtain concentrated fungicide solutions. The concentrated solutions of the safener were prepared following the same procedure. Weighed amounts of safener were placed in 25 mL glass vials and dissolved in a volume of 97:3 v/v acetone/DMSO to obtain concentrated safener solutions.
(§3) Spray solutions of the cereal herbicide and the fungicidal compound mixtures were prepared by adding the concentrated solutions to the appropriate amount of dilution solution to form 12 mL spray solution with active ingredients in combinations. Spray solutions of the cereal herbicide, herbicide safener and the fungicidal compound mixtures were prepared by adding the concentrated solutions to the appropriate amount of dilution solution to form 12 mL spray solution with active ingredients in combinations.
(§4) Formulated compounds were applied to the plant material with an overhead Mandel track sprayer equipped with 8002E nozzles calibrated to deliver 187 L/ha over an application area of 0.503 square meters (m^2) at a spray height of 18 inches […] above average plant canopy. Control plants were sprayed in the same manner with the solvent blank.
(§5) The treated plants and control plants were placed in a greenhouse as described above and watered by sub-irrigation to prevent wash-off of the test compounds. After 20-22 d, the condition of the test plants as compared with that of the control plants was determined visually and scored on a scale of 0 to 100 percent where 0 corresponds to no injury and 100 corresponds to complete kill. […]

[2] = system: kochia (Kochia scoparia L; KCHSC); experiment: Postemergence herbicidal activity of mixtures on kochia; parameters: pest or weed control: dose or concentration left out as unconfirmed; settings: for KCHSC Ob (observed control): alone
Method: as §1, §2, §3, §4, §5

[3] = system: Russian thistle (Salsola iberica L; SASKR); experiment: Postemergence herbicidal activity of mixtures on Russian thistle
Method: as §1, §2, §3, §4, §5

[4] = system: bird's-eye speedwell (Veronica persica L; VERPE); experiment: Postemergence herbicidal activity of mixtures on bird's-eye speedwell; settings: Veronica persica, post-emergence, read-out: VERPE Ob
Method: as §1, §2, §3, §4, §5

[5] = system: wild pansy (Viola tricolor L; VIOTR); experiment: Postemergence herbicidal activity of mixtures on wild pansy; settings: Viola tricolor, post-emergence
Method: as §1, §2, §3, §4, §5

[6] = Matricaria, post-emergence, read-out: MATCH Ob
[7] = Bassia scoparia, post-emergence, read-out: KCHSC Ob

CCCN(CCOc1c(Cl)cc(Cl)cc1Cl)C(=O)n1ccnc1 [Prochloraz, N-propyl-N-[2-(2,4,6-trichlorophenoxy)ethyl]-1H-imidazole-1-carboxamide]
0%: pest or weed control at 101.25 g/ha [1, 6] | pest or weed control at 101.25 g/ha [2, 7] | pest or weed control at 101.25 g/ha ([3]; Salsola tragus, post-emergence, read-out: SASKR Ob) | pest or weed control at 101.25 g/ha [4] | pest or weed control at 101.25 g/ha ([5]; read-out: VIOTR Ob)

CC(C1CC1)C(O)(Cn1cncn1)c1ccc(Cl)cc1 (stereo not drawn) [Cyproconazole, α-(4-chlorophenyl)-α-(1-cyclopropylethyl)-1H-1,2,4-triazole-1-ethanol]
0%: pest or weed control at 19.8 g/ha ([1]; Matricaria, post-emergence, fungicide 19.8 g/ha alone, read-out: MATCH Ob) | pest or weed control at 19.8 g/ha ([2]; Bassia scoparia, post-emergence, fungicide 19.8 g/ha alone, read-out: KCHSC Ob) | pest or weed control at 19.8 g/ha ([3]; Salsola tragus, post-emergence, fungicide 19.8 g/ha alone, read-out: SASKR Ob) | pest or weed control at 19.8 g/ha ([4]; fungicide 19.8 g/ha alone) | pest or weed control at 19.8 g/ha ([5]; fungicide 19.8 g/ha alone, read-out: VIOTR Ob)

COc1cc(C)c(C(=O)c2c(OC)ccc(Br)c2C)c(OC)c1OC [Metrafenone, (3-bromo-6-methoxy-2-methylphenyl)(2,3,4-trimethoxy-6-methylphenyl)methanone]
0%: pest or weed control at 37.5 g/ha ([1]; Matricaria, post-emergence, fungicide 37.5 g/ha alone, read-out: MATCH Ob) | pest or weed control at 37.5 g/ha ([3]; Salsola tragus, post-emergence, fungicide 37.5 g/ha alone, read-out: SASKR Ob) | pest or weed control at 37.5 g/ha ([5]; fungicide 37.5 g/ha alone, read-out: VIOTR Ob)

Cc1cc(C2CC2)nc(Nc2ccccc2)n1 [Cyprodinil, 4-cyclopropyl-6-methyl-N-phenyl-2-pyrimidinamine]
0%: pest or weed control at 187.5 g/ha ([3]; Salsola tragus, post-emergence, fungicide 187.5 g/ha alone, read-out: SASKR Ob)

COc1ccnc(C(=O)N[C@H]2COC(=O)[C@H](Cc3ccccc3)[C@@H](OC(=O)C(C)C)[C@H](C)OC2=O)c1OCOC(=O)C(C)C [compound II, isobutyric acid (3S,6S,7R,8R)-8-benzyl-3-[(3-isobutyryloxymethoxy-4-methoxypyridine-2-carbonyl)-amino]-6-methyl-4,9-dioxo-[1,5]dioxonan-7-yl ester]
0%: MATCH Ob (observed control) ([1]; 40.5 g/ha) | KCHSC Ob (observed control) ([2]; 40.5 g/ha) | SASKR Ob (observed control) ([3]; alone, 40.5 g/ha) | pest or weed control at 40.5 g/ha ([5]; read-out: VIOTR Ob (observed control))

CO/N=C(/C(=O)OC)c1ccccc1COc1ccccc1C [Kresoxim-methyl, methyl (αE)-α-(methoxyimino)-2-[(2-methylphenoxy)methyl]benzeneacetate]
0%: pest or weed control at 25 g/ha ([1]; Matricaria, post-emergence, fungicide 25 g/ha alone, read-out: MATCH Ob)

CCCOc1nc2ccc(I)cc2c(=O)n1CCC [Proquinazid, 6-iodo-2-propoxy-3-propyl-4(3H)-quinazolinone]
0%: pest or weed control at 12.5 g/ha ([1]; Matricaria, post-emergence, fungicide 12.5 g/ha alone, read-out: MATCH Ob) | pest or weed control at 12.5 g/ha ([5]; fungicide 12.5 g/ha alone, read-out: VIOTR Ob)

OC(Cc1ccccc1Cl)(Cn1[nH]cnc1=S)C1(Cl)CC1 (stereo not drawn) [Prothioconazole, 2-[2-(1-chlorocyclopropyl)-3-(2-chlorophenyl)-2-hydroxypropyl]-1,2-dihydro-3H-1,2,4-triazole-3-thione]
0%: pest or weed control at 50 g/ha ([1]; Matricaria, post-emergence, fungicide 50 g/ha alone, read-out: MATCH Ob) | pest or weed control at 50 g/ha ([2]; Bassia scoparia, post-emergence, fungicide 50 g/ha alone, read-out: KCHSC Ob) | pest or weed control at 50 g/ha ([3]; Salsola tragus, post-emergence, fungicide 50 g/ha alone, read-out: SASKR Ob) | pest or weed control at 50 g/ha ([4]; fungicide 50 g/ha alone)

CC1(C)CCC(Cc2ccc(Cl)cc2)C1(O)Cn1cncn1 (stereo not drawn) [Metconazole, 5-[(4-chlorophenyl)methyl]-2,2-dimethyl-1-(1H-1,2,4-triazol-1-ylmethyl)cyclopentanol]
0%: pest or weed control [1, 6] | pest or weed control [2, 7]

CCCN(CC)CC1COC2(CCC(C(C)(C)C)CC2)O1 (stereo not drawn) [Spiroxamine, 8-(1,1-dimethylethyl)-N-ethyl-N-propyl-1,4-dioxaspiro[4.5]decane-2-methanamine]
0%: MATCH Ob (observed control) ([1]; 180 g/ha) | KCHSC Ob (observed control) ([2]; 180 g/ha) | pest or weed control at 180 g/ha ([5]; alone, 180 g/ha, read-out: VIOTR Ob (observed control))

COC(=O)Nc1nc2ccccc2[nH]1 [Carbendazim, methyl 1H-benzimidazol-2-ylcarbamate]
0%: pest or weed control at 62.5 g/ha ([2]; Bassia scoparia, post-emergence, fungicide 62.5 g/ha alone, read-out: KCHSC Ob) | pest or weed control at 62.5 g/ha ([5]; fungicide 62.5 g/ha alone, read-out: VIOTR Ob)

OC(Cn1cncn1)(c1ccc(F)cc1)c1ccccc1F (stereo not drawn) [Flutriafol, α-(2-fluorophenyl)-α-(4-fluorophenyl)-1H-1,2,4-triazole-1-ethanol]
0%: pest or weed control at 21.25 g/ha ([1]; Matricaria, post-emergence, fungicide 21.25 g/ha alone, read-out: MATCH Ob) | pest or weed control at 21.25 g/ha ([2]; Bassia scoparia, post-emergence, fungicide 21.25 g/ha alone, read-out: KCHSC Ob) | pest or weed control at 21.25 g/ha ([3]; Salsola tragus, post-emergence, fungicide 21.25 g/ha alone, read-out: SASKR Ob) | pest or weed control at 21.25 g/ha ([5]; fungicide 21.25 g/ha alone, read-out: VIOTR Ob)
